From PubChem BioAssay AID1963864 (Molecular Pharmacology Branch, DTP, NCI, 2024)
pIC50: −log10 of the molar value.

System: KRAS PDC multicell spheroid viability
Experiment: Anticancer human tumor 521955-158-R6-J3-PDC patient-derived pancreatic carcinoma cell line growth inhibition [KRAS2]
Conditions: for pIC50: curve of first compound; for viability, T/C: stronger effect = lower value
Source text: Multicellular complex tumor spheroid response to RAS pathway inhibitors in combination with a targeted agents in patient-derived cell lines with oncogenic KRAS variants from multiple cancer types
A high-throughput screen of multi-cell type tumor spheroids was designed to identify active combinations of targeted small molecules and KRAS pathway inhibitors. Complex spheroids include a stromal component modeled by human endothelial cells (HUVEC) and fibroblasts modeled by human mesenchymal stem cells (MSCs). The concentration ranges selected for each drug and investigational agent were based upon clinically achievable concentrations if the clinical Cmax of the agent was known.
Compounds. The drugs and investigational agents: BI-3406 (NSC825286), BAY-293 (NSC824723), batoprotafib (TNO155; NSC825523), sotorasib (AMG 510; NSC818433), MRTX1257 (NSC819558), elimusertib (BAY 1895344; NSC800525), molibresib (GSK525762; NSC774829), temuterkib (LY3214996; NSC803410), venetoclax (NSC766270), alisertib (NSC759677), olaparib (NSC753686), talazoparib (NSC767125), erdafitinib (NSC781556), ipatasertib (NSC767898), cabozantinib (NSC761068), nintedanib (NSC756659), abemaciclib (NSC768073), docetaxel (NSC628503), trametinib (NSC758246), and sapanisertib (NSC764658) were obtained from the National Cancer Institute (NCI) Developmental Therapeutics Program Chemical Repository. The FDA-approved anticancer drug set is available from the Developmental Therapeutics Program. […] The stock solutions were prepared in dimethyl sulfoxide (DMSO, Sigma-Aldrich, St. Louis, MO, cat. D2650) at 800-fold the tested concentration and stored at -70 degrees C prior to their use. All drugs and investigational agents were tested over a range starting from a high concentration at or near the clinical Cmax and decreasing in half-log increments. If the clinical Cmax for an agent had not been determined, the highest concentration tested was 10 microM.
Cell Culture. All cells were maintained in an incubator at 37 degrees C and 5% CO2 with 95% humidity. The PDC lines were cultured according to standard operating procedures established by the NCI PDMR (https://pdmr.cancer.gov/sops/default.htm). Briefly, all PDCs were thawed and cultured in Matrigel-coated flasks prepared with a working solution of 1X Ham's F-12 nutrient mix, without supplementation (Invitrogen, Waltham, MA, cat. 11765054), 100 U/mL penicillin-streptomycin (Invitrogen, cat. 15140122), and 2.5% Matrigel (Corning Inc., Corning, NY, cat. 354248) for the first three passages. All PDCs were cultured in complete DMEM/F-12 media containing advanced DMEM/F-12 (Invitrogen, cat. 12634028), 4.9% defined fetal bovine serum, heat inactivated (HyClone Laboratories Inc., Logan, UT, cat. SH30070.03HI), 389 ng/mL hydrocortisone (Sigma-Aldrich, cat. H4001), 9.7 ng/mL human EGF recombinant protein (Invitrogen, cat. PHG0313), 23.4 microg/mL adenine (Sigma-Aldrich, cat. A2786), 97.3 U/mL penicillin-streptomycin (Invitrogen, cat. 15140122), 1.9 mM L-glutamine (Invitrogen, cat. 25030081), and 9.7 microM Y-27632 dihydrochloride (Tocris Bioscience, Bristol, United Kingdom, cat. 1254). The PDCs were cultured in complete DMEM/F12 media without 9.7 microM Y-27632 dihydrochloride for at least two passages prior to the screen. The established cell line HOP-62 was cultured in RPMI 1640 medium, HEPES (Invitrogen, cat. 22400105) with 10% defined fetal bovine serum (HyClone Laboratories Inc., cat. SH30070.03) and 2 mM L-glutamine (Invitrogen, cat. 25030081). The pooled donor HUVEC were cultured in endothelial cell growth medium 2 (PromoCell, Heidelberg, Germany, cat. C-22011) and the hMSC were cultured in mesenchymal stem cell growth medium 2 (PromoCell, cat. C-28009). For all experiments, HUVEC and hMSC were used at passages </=5, while the malignant cell lines were used at passages </=15. […]
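Note: drug exposure lasted seven days.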
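Throughout, for viability, T/C: 100% = DMSO vehicle wells and lower means fewer viable cells.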

How did the pIC50 (second compound 0.1 µM) turn out when `CC(C)NCC(C(=O)N1CCN(c2ncnc3c2C(C)CC3O)CC1)c1ccc(Cl)cc1` (stereo not given) + C=CC(=O)N1CCN(c2nc(=O)n(-c3c(C)ccnc3C(C)C)c3nc(-c4c(O)cccc4F)c(F)cc23)C(C)C1 was run?
The pIC50 was < 5.00.

And the pIC50 (second compound 0.316 µM)?
Its pIC50 is < 5.00.

And the pIC50 (second compound 1 µM)?
The pIC50 was < 5.00.

What about the pIC50 (second compound 3.16 µM) of the same molecule?
Its pIC50 is < 5.00.

What about the pIC50 (second compound 10 µM) of the same molecule?
The pIC50 was 6.17.

What about the viability, T/C (second compound 0.1 µM, first compound 0.0316 µM) of the same molecule?
Its viability, T/C is 90.8%.

What about the viability, T/C (second compound 0.1 µM, first compound 0.1 µM) of the same molecule?
Its viability, T/C is 90.4%.

And the viability, T/C (second compound 0.1 µM, first compound 0.316 µM)?
The viability, T/C was 74.5%.

What about the viability, T/C (second compound 0.1 µM, first compound 1 µM) of the same molecule?
The viability, T/C was 76.2%.

And the viability, T/C (second compound 0.1 µM, first compound 3.16 µM)?
Its viability, T/C is 79.5%.

And the viability, T/C (second compound 0.1 µM, first compound 10 µM)?
The viability, T/C was 65.7%.

What about the viability, T/C (second compound 0.316 µM, first compound 0.0316 µM) of the same molecule?
Its viability, T/C is 94.4%.

What about the viability, T/C (second compound 0.316 µM, first compound 0.1 µM) of the same molecule?
The viability, T/C was 89%.

And the viability, T/C (second compound 0.316 µM, first compound 0.316 µM)?
The viability, T/C was 72.5%.

What about the viability, T/C (second compound 0.316 µM, first compound 1 µM) of the same molecule?
The viability, T/C was 81.3%.

And the viability, T/C (second compound 0.316 µM, first compound 3.16 µM)?
Its viability, T/C is 79.8%.

And the viability, T/C (second compound 0.316 µM, first compound 10 µM)?
The viability, T/C was 58.6%.

What about the viability, T/C (second compound 1 µM, first compound 0.0316 µM) of the same molecule?
The viability, T/C was 93.5%.

And the viability, T/C (second compound 1 µM, first compound 0.1 µM)?
The viability, T/C was 83.4%.

What about the viability, T/C (second compound 1 µM, first compound 0.316 µM) of the same molecule?
The viability, T/C was 75.8%.

And the viability, T/C (second compound 1 µM, first compound 1 µM)?
The viability, T/C was 69.7%.

And the viability, T/C (second compound 1 µM, first compound 3.16 µM)?
The viability, T/C was 66.9%.

What about the viability, T/C (second compound 1 µM, first compound 10 µM) of the same molecule?
The viability, T/C was 65.5%.

And the viability, T/C (second compound 3.16 µM, first compound 0.0316 µM)?
Its viability, T/C is 85.7%.

What about the viability, T/C (second compound 3.16 µM, first compound 0.1 µM) of the same molecule?
Its viability, T/C is 72%.

What about the viability, T/C (second compound 3.16 µM, first compound 0.316 µM) of the same molecule?
The viability, T/C was 66.5%.

What about the viability, T/C (second compound 3.16 µM, first compound 1 µM) of the same molecule?
Its viability, T/C is 64.9%.

And the viability, T/C (second compound 3.16 µM, first compound 3.16 µM)?
Its viability, T/C is 57.4%.

And the viability, T/C (second compound 3.16 µM, first compound 10 µM)?
The viability, T/C was 57.4%.

And the viability, T/C (second compound 10 µM, first compound 0.0316 µM)?
Its viability, T/C is 75.3%.

What about the viability, T/C (second compound 10 µM, first compound 0.1 µM) of the same molecule?
Its viability, T/C is 63.2%.

And the viability, T/C (second compound 10 µM, first compound 0.316 µM)?
The viability, T/C was 54.6%.

And the viability, T/C (second compound 10 µM, first compound 1 µM)?
Its viability, T/C is 43.3%.

And the viability, T/C (second compound 10 µM, first compound 3.16 µM)?
The viability, T/C was 50.3%.

What about the viability, T/C (second compound 10 µM, first compound 10 µM) of the same molecule?
The viability, T/C was 43.7%.
